According to ChEMBL document CHEMBL3822368, “Further optimization of the M1 PAM VU0453595: Discovery of novel heterobicyclic core motifs with improved CNS penetration” (Bioorg Med Chem Lett, 2016):
Where a chain is given by its changes, count along the chain named.

Assays:
[1] = Fraction unbound in human plasma; type: ADME, cell-free
[2] = target: T1, Muscarinic acetylcholine receptor M1 (Rattus norvegicus, UniProt P08482); experiment: Positive allosteric modulation at rat muscarinic acetylcholine receptor M1 expressed in CHO cells assessed as potentiation of acetylcholine-induced calcium mobilization; type: functional, cell-based
T1 sequence (P08482 whole entry): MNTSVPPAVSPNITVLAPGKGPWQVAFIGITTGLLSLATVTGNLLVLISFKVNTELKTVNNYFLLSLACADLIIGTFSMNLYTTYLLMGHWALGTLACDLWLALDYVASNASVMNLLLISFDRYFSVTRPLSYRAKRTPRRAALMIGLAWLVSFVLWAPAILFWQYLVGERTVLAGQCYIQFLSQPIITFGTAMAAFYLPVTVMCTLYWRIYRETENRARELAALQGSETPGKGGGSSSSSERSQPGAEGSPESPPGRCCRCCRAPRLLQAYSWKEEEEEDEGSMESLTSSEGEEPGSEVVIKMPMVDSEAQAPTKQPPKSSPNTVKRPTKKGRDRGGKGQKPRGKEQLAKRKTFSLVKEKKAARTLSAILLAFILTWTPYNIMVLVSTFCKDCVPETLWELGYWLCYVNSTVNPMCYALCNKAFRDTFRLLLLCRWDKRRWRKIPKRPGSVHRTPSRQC

[3] = target: T2, Muscarinic acetylcholine receptor M1 (Rattus norvegicus) (UniProt P08482); experiment: Positive allosteric modulation at rat muscarinic acetylcholine receptor M1 expressed in CHO cells assessed as potentiation of acetylcholine-induced calcium mobilization in relative to acetylcholine; type: functional, cell-based
T2 sequence (whole entry): T1 sequence (P08482 whole entry)

[4] = Fraction unbound in rat plasma; type: ADME, cell-free
[5] = Brain to plasma partition coefficient in Sprague-Dawley rat at 0.20 to 0.25 mg/kg, iv administered through cassette dosing after 0.25 hrs; type: ADME, organism-based; settings: for Kp at 0.25 h: Sprague-Dawley, brain and plasma
[6] = target: T3, Muscarinic acetylcholine receptor M1 (Homo sapiens, UniProt P11229); experiment: Positive allosteric modulation at human muscarinic acetylcholine receptor M1 expressed in CHO cells assessed as potentiation of acetylcholine-induced calcium mobilization; type: functional, cell-based
T3 sequence (P11229 whole entry): T1 sequence (P08482 whole entry) with V5A, S254T, S309P, K320R, G337A, V413I

CHO = experiment: Selectivity ratio of EC50 for human muscarinic acetylcholine receptor M1 to EC50 for rat muscarinic acetylcholine receptor M1 expressed in CHO cells; type: cell-based
[7] = Unbound brain to plasma partition coefficient in Sprague-Dawley rat at 0.20 to 0.25 mg/kg, iv administered through cassette dosing after 0.25 hrs; type: ADME, organism-based; settings: brain and plasma; for Kp uu at 0.25 h: read-out: K(p,uu,brain)
[8] = target: T3, Muscarinic acetylcholine receptor M1; experiment: Positive allosteric modulation at human muscarinic acetylcholine receptor M1 assessed as effect on receptor internalization
[9] = target: T4, Muscarinic acetylcholine receptor M1 (Homo sapiens) (UniProt P11229); experiment: Positive allosteric modulation at human muscarinic acetylcholine receptor M1 expressed in CHO cells assessed as potentiation of acetylcholine-induced calcium mobilization relative to acetylcholine; type: functional, cell-based
T4 sequence (whole entry): T1 sequence (P08482 whole entry) with V5A, S254T, S309P, K320R, G337A, V413I

[10] = target: T4, Muscarinic acetylcholine receptor M1 (Homo sapiens); experiment: Positive allosteric modulation at human muscarinic acetylcholine receptor M1 assessed as effect on beta-arrestin recruitment relative to acetylcholine
[11] = target: T3, Muscarinic acetylcholine receptor M1; experiment: Positive allosteric modulation at human muscarinic acetylcholine receptor M1 assessed as effect on beta-arrestin recruitment
[12] = Fraction unbound in rat brain homogenate; type: ADME, tissue-based

Compound	fraction unbound [1]	EC50 [2] [µM]	%max [3] [%]	fraction unbound [4]	Kp at 0.25 h [5]	EC50 [6] [µM]	Ratio EC50 (CHO)	Kp uu at 0.25 h [7]	Kpuu at 0.25 h [7]	EC50 [8] [µM]	%max [9] [%]	%max [10] [%]	EC50 [11] [µM]	Kp ([5]; brain, 0.25 h, BLD = below limit of detection)	fraction unbound [12]
Cn1cc2c(-c3cc(F)c(Cn4cnc5ccccc5c4=O)c(F)c3)cccc2n1	0.01	4.7	45	0.01	0.79	> 10	2	0.32							
O=c1c2ccncc2ncn1Cc1c(F)cc(-c2ccc3cnccc3c2)cc1F	0.03	6.1		0.03	3.1				2.7						
Cn1cc2c(-c3cc(F)c(Cn4cnc5cnccc5c4=O)c(F)c3)cccc2n1	0.01	4.7	73	0.01	0.77	5.3	2	0.6		> 10	65	33	0.98		
Cn1cnc2ccc(-c3cc(F)c(Cn4cnc5cnccc5c4=O)c(F)c3)cc21	0.06	5.3		0.04										BLD	
Cn1cc(-c2ccc(CN3Cc4ncccc4C3=O)c(F)c2)cn1		3.2	75		0.3	1.9	3			> 10	79	57	2.6		
Cn1cc2cc(-c3cc(F)c(Cn4c(=O)cnc5ncccc54)c(F)c3)ccc2n1	0.04	2.8		0.04	1.64				1.1						
Cn1cc2c(-c3cc(F)c(CN4CCc5ncccc5C4=O)c(F)c3)cccc2n1	0.01	4.3	52	0.01	0.52	> 10	2	0.49							
Cn1cc2cc(-c3cc(F)c(CN4CCn5nccc5C4=O)c(F)c3)ccc2n1	0.05	1.7	50	0.06	0.4				0.7						0.098
Cn1cc2c(-c3cc(F)c(Cn4c(=O)cnc5ccccc54)c(F)c3)cccc2n1	0.01	4.9	67	0.01	2.16	> 10	2	0.77							
Cn1cc2c(-c3cc(F)c(CN4CCn5nccc5C4=O)c(F)c3)cccc2n1		> 10													
Cn1cc2c(-c3cc(F)c(CN4C=CC5=NCCN5C4=O)c(F)c3)cccc2n1	0.04	1.7	50	0.08	0.35	> 10	2	0.3							
